In patent publication US20220000110A1, “COMPOSITIONS COMPRISING PYRIDINE CARBOXYLATE HERBICIDES AND CELLULOSE BIOSYNTHESIS INHIBITOR HERBICIDES” (priority 2018, published 2022):

Tests used:
Test in all cases: Greenhouse postemergence herbicidal effect, visual injury after 20-22 d
Format in all cases: in vivo
[1] = system: Brassica napus (winter rape); conditions: BRSNW
Description: (§1) Greenhouse Trial Methodology—Evaluation of Postemergence Herbicidal Effect
(§2) Seeds of the desired test plant species were planted in a 90:10% v/v (volume/volume) mixture of PRO-MIX® BX (Premier Tech Horticulture, Quakertown, Pa., USA) and PROFILE® GREENS GRADE™ (Profile Products LLC, Buffalo Grove, Ill., USA) planting mixture, which typically has a pH of 5.2 to 6.2 and an organic matter content of at least 50 percent, in plastic pots with a surface area of 103.2 square centimeters (cm^2). In some aspects, to help ensure good germination and healthy plants, a fungicide treatment and/or other chemical or physical treatment was applied. The plants were grown for 7-36 days (d) in a greenhouse with an approximate 14-hour (h) photoperiod which was maintained at about 23° C. during the day and 22° C. during the night. Nutrients and water were added on a regular basis and supplemental lighting was provided with overhead metal halide 1000-Watt lamps as necessary. The plants were employed for testing when they reached the second or third true leaf stage.
(§3) Emulsifiable concentrates of each of each pyridine carboxylate herbicide (Compound A or Compound B) were prepared at 100 grams acid equivalent per liter (g ae/L). The emulsifiable concentrates also included a safener, at 120 grams active ingredient per liter (g ai/L). An aliquot of each emulsifiable concentrate was placed in a 25 mL glass vial and diluted with an aqueous mixture of 1.25% (v/v) ACTIROB® B esterified rapeseed oil (Bayer Crop Science, Research Triangle Park, N.C., USA) or MSO® Concentrate with LECI-TECH® methylated soybean oil (Loveland Products, Loveland, Colo., USA) to obtain concentrated stock solutions at the highest application rate for each herbicide, based upon a 12 milliliter (mL) application volume at a rate of 187 liters per hectare (L/ha). The concentrated stock solutions were further diluted with an aqueous mixture of 1.25% v/v ACTIROB® B or MSO® Concentrate with LECI-TECH® to obtain stock solutions at reduced application rates for each herbicide. Spray solutions of the herbicide combinations (Compound A or Compound B plus the CBI herbicide) were prepared by adding weighed amounts or aliquots of the CBI herbicide to the stock solutions of Compound A or Compound B to form 12-mL spray solutions in two-way combinations.
(§4) The spray solutions were applied to the plant material with an overhead Mandel track sprayer equipped with 8002E nozzles calibrated to deliver 187 L/ha over an application area of 0.503 square meters (m^2) at a spray height of 18 inches (43 centimeters (cm)) above the average plant canopy. Control plants were sprayed in the same manner with the solvent blank. All pyridine carboxylate herbicide (component a) application rates are given as “g ae/ha” and all CBI herbicide (component b) application rates are given as “g ai/ha.”
(§5) The treated plants and control plants were placed in a greenhouse as described above and watered by sub-irrigation to prevent wash-off of the test compounds. After 20-22 d, the condition of the test plants as compared with that of the control plants was determined visually and scored on a scale of 0 to 100 percent where 0 corresponds to no injury and 100 corresponds to complete kill.

[2] = system: Chenopodium album L. (common lambsquarters); conditions: CHEAL
Description: as §1, §2, §3, §4, §5

[3] = system: Cirsium arvense (Canadian thistle); conditions: CIRAR
Description: as §1, §2, §3, §4, §5

[4] = system: Cyperus esculentus (nutsedge); conditions: Table 1, CYPES
Description: as §1, §2, §3, §4, §5

[5] = system: Echinochloa crus-galli (barnyard grass); conditions: ECHCG
Description: as §1, §2, §3, §4, §5

[6] = system: Euphorbia heterophylla (poinsettia); conditions: Table 1, EPHHL
Description: as §1, §2, §3, §4, §5

Glycine max (soybean) = conditions: Table 1, GLXMA
Description: as §1, §2, §3, §4, §5

[7] = system: Lolium multiflorum (Italian rye grass); conditions: Table 2, LOLMU
Description: as §1, §2, §3, §4, §5

[8] = system: Matricaria chamomilla (wild chamomile); conditions: MATCH
Description: as §1, §2, §3, §4, §5

[9] = system: Polygonum convolvulus (wild buckwheat); conditions: POLCO
Description: as §1, §2, §3, §4, §5

[10] = system: Salsola kali (Russian thistle); conditions: SASKR
Description: as §1, §2, §3, §4, §5

[11] = system: Setaria faberi (giant foxtail); conditions: SETFA
Description: as §1, §2, §3, §4, §5

[12] = system: Sorghum vulgare (grain sorghum); conditions: Table 1, SORVU
Description: as §1, §2, §3, §4, §5

Compound: N#CCOC(=O)c1nc(-c2ccc3cc[nH]c3c2F)c(F)c(N)c1Cl [Compound A, cyanomethyl 4-amino-3-chloro-5-fluoro-6-(7-fluoro-1H-indol-6-yl)pyridine-2-carboxylate]
- Obs % visual injury ([1]; Table 3, Compound A 7.5 g/ha): 60%
- Obs % visual injury ([1]; Table 3, Compound A 10 g/ha): 60%
- Obs % visual injury ([1]; Table 3, Compound A 15 g/ha): 75%
- Obs % visual injury ([1]; Table 4, Compound A 7.5 g/ha): 60%
- Obs % visual injury ([1]; Table 4, Compound A 10 g/ha): 60%
- Obs % visual injury ([1]; Table 4, Compound A 15 g/ha): 75%
- Obs % visual injury ([2]; Table 1, Compound A 7.5 g/ha): 98%
- Obs % visual injury ([2]; Table 1, Compound A 10 g/ha): 93%
- Obs % visual injury ([2]; Table 3, Compound A 7.5 g/ha): 70%
- Obs % visual injury ([2]; Table 3, Compound A 10 g/ha): 78%
- Obs % visual injury ([2]; Table 3, Compound A 15 g/ha): 83%
- Obs % visual injury ([2]; Table 4, Compound A 7.5 g/ha): 70%
- Obs % visual injury ([2]; Table 4, Compound A 10 g/ha): 78%
- Obs % visual injury ([2]; Table 4, Compound A 15 g/ha): 83%
- Obs % visual injury ([3]; Table 1, Compound A 7.5 g/ha): 40%
- Obs % visual injury ([3]; Table 1, Compound A 10 g/ha): 60%
- Obs % visual injury ([3]; Table 2, Compound A 7.5 g/ha): 23%
- Obs % visual injury ([3]; Table 2, Compound A 10 g/ha): 20%
- Obs % visual injury ([4]; Compound A 7.5 g/ha): 30%
- Obs % visual injury ([4]; Compound A 10 g/ha): 8%
- Obs % visual injury ([5]; Table 1, Compound A 7.5 g/ha): 88%
- Obs % visual injury ([5]; Table 1, Compound A 10 g/ha): 80%
- Obs % visual injury ([5]; Table 2, Compound A 7.5 g/ha): 73%
- Obs % visual injury ([5]; Table 2, Compound A 10 g/ha): 78%
- Obs % visual injury ([6]; Compound A 7.5 g/ha): 97%
- Obs % visual injury ([6]; Compound A 10 g/ha): 97%
- Obs % visual injury (Glycine max (soybean); Compound A 7.5 g/ha): 80%
- Obs % visual injury (Glycine max (soybean); Compound A 10 g/ha): 90%
- Obs % visual injury ([7]; Compound A 7.5 g/ha): 0%
- Obs % visual injury ([7]; Compound A 10 g/ha): 0%
- Obs % visual injury ([8]; Table 3, Compound A 7.5 g/ha): 8%
- Obs % visual injury ([8]; Table 3, Compound A 10 g/ha): 15%
- Obs % visual injury ([8]; Table 3, Compound A 15 g/ha): 10%
- Obs % visual injury ([8]; Table 4, Compound A 7.5 g/ha): 8%
- Obs % visual injury ([8]; Table 4, Compound A 10 g/ha): 15%
- Obs % visual injury ([8]; Table 4, Compound A 15 g/ha): 10%
- Obs % visual injury ([9]; Table 1, Compound A 7.5 g/ha): 83%
- Obs % visual injury ([9]; Table 1, Compound A 10 g/ha): 93%
- Obs % visual injury ([9]; Table 2, Compound A 7.5 g/ha): 75%
- Obs % visual injury ([9]; Table 2, Compound A 10 g/ha): 70%
- Obs % visual injury ([9]; Table 3, Compound A 7.5 g/ha): 63%
- Obs % visual injury ([9]; Table 3, Compound A 10 g/ha): 60%
- Obs % visual injury ([9]; Table 3, Compound A 15 g/ha): 63%
- Obs % visual injury ([9]; Table 4, Compound A 7.5 g/ha): 63%
- Obs % visual injury ([9]; Table 4, Compound A 10 g/ha): 60%
- Obs % visual injury ([9]; Table 4, Compound A 15 g/ha): 63%
- Obs % visual injury ([10]; Table 3, Compound A 7.5 g/ha): 55%
- Obs % visual injury ([10]; Table 3, Compound A 10 g/ha): 58%
- Obs % visual injury ([10]; Table 3, Compound A 15 g/ha): 65%
- Obs % visual injury ([10]; Table 4, Compound A 7.5 g/ha): 55%
- Obs % visual injury ([10]; Table 4, Compound A 10 g/ha): 58%
- Obs % visual injury ([10]; Table 4, Compound A 15 g/ha): 65%
- Obs % visual injury ([11]; Table 1, Compound A 7.5 g/ha): 78%
- Obs % visual injury ([11]; Table 1, Compound A 10 g/ha): 80%
- Obs % visual injury ([11]; Table 2, Compound A 7.5 g/ha): 70%
- Obs % visual injury ([11]; Table 2, Compound A 10 g/ha): 70%
- Obs % visual injury ([12]; Compound A 7.5 g/ha): 0%
- Obs % visual injury ([12]; Compound A 10 g/ha): 0%
